According to ChEMBL document CHEMBL5331145, “Discovery of a Novel Bifunctional Steroid Analog, YXG-158, as an Androgen Receptor Degrader and CYP17A1 Inhibitor for the Treatment of Enzalutamide-Resistant Prostate Cancer” (J Med Chem, 2023):
Active and inactive are the calls of the source. The rule behind the calls is not given here.

Tests used:
[1] = tested on: LNCaP; assay: Antiproliferative activity against human LNCaP cells incubated for 6 days by CellTiter-Glo assay; format: functional, cell-based
[2] = target: Voltage-gated inwardly rectifying potassium channel KCNH2 (Homo sapiens, UniProt Q12809); assay: Inhibition of human ERG by patch clamp assay; format: toxicity
[3] = target: T1, Androgen receptor (Homo sapiens, UniProt P10275); assay: Induction of androgen receptor degradation in human LNCaP cells incubated for 24 hrs by ELISA; format: cell-based
T1 sequence (P10275 whole entry): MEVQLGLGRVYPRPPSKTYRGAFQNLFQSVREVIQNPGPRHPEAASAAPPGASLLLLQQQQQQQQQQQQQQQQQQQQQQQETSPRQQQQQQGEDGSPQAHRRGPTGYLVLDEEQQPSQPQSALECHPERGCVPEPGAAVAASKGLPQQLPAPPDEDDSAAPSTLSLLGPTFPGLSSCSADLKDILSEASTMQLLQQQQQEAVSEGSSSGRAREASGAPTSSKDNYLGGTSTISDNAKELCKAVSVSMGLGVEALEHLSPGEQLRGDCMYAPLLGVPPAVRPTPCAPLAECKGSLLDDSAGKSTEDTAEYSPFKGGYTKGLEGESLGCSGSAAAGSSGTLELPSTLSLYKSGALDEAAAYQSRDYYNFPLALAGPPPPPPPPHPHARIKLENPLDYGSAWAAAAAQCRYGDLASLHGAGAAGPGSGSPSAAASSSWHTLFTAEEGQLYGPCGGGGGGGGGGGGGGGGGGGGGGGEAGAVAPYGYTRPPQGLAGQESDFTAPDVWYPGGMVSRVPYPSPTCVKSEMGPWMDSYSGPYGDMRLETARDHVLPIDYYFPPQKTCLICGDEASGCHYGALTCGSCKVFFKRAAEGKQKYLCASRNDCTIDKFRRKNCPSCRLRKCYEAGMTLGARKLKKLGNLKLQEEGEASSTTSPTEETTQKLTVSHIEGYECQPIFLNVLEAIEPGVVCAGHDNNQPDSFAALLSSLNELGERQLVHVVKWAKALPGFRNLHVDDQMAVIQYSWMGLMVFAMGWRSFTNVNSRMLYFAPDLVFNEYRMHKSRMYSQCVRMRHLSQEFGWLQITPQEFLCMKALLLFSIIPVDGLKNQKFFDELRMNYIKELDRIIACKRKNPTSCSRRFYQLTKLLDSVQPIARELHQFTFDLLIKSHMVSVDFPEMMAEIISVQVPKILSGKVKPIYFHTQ

[4] = target: T2, Androgen receptor (Homo sapiens) (UniProt P10275); assay: Potency index, ratio of galeterone DC50 to test compound DC50 for induction of androgen receptor degradation in human LNCaP cells; format: cell-based
T2 sequence (whole entry): T1 sequence (P10275 whole entry)

[5] = target: T3, Steroid 17-alpha-hydroxylase/17,20 lyase (Homo sapiens, UniProt P05093); assay: Inhibition of recombinant human CYP17A1 using progesterone as substrate incubated for 5 mins in presence of NADPH by LC-MS/MS analysis; format: ADME
T3 sequence (P05093 whole entry): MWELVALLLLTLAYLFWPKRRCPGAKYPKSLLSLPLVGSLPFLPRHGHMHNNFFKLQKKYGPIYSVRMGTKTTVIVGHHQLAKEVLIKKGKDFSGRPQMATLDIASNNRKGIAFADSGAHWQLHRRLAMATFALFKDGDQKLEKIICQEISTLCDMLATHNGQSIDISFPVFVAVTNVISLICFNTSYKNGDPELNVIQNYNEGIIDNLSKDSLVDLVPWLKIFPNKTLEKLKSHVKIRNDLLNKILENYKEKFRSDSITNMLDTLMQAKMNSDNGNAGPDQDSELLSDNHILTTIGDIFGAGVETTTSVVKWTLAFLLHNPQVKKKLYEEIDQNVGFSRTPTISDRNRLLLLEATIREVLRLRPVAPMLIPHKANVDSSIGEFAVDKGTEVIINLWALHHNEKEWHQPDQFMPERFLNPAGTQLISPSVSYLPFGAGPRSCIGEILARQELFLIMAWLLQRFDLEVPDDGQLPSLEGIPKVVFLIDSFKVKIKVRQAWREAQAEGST

[6] = tested on: Androgen receptor (Homo sapiens), P10275 [F877L]; assay: Antagonist activity at androgen receptor F876L mutant expressed in HEK293 cells assessed as reduction in DHT-induced transcriptional activation of androgen receptor incubated for 24 hrs by Steady-Glo assay relative to control; format: cell-based; design: scale not given: the % may be the effect or the level left; settings: filed as antagonist
[7] = Half life in Sprague-Dawley rat at 10 mg/kg, po measured upto 24 hrs by LC-MS/MS analysis; format: ADME, organism-based; settings: in vivo
[8] = Tmax in Sprague-Dawley rat at 10 mg/kg, po measured upto 24 hrs by LC-MS/MS analysis; format: ADME, organism-based; settings: in vivo
[9] = Cmax in Sprague-Dawley rat at 10 mg/kg, po measured upto 24 hrs by LC-MS/MS analysis; format: ADME, organism-based; design: dose 10 mg/kg, time < 24 hrs, route po; settings: in vivo
[10] = AUC(0 to t) in Sprague-Dawley rat at 10 mg/kg, po measured upto 24 hrs by LC-MS/MS analysis; format: ADME, organism-based; settings: in vivo
[11] = Effect on androgen sensitive organs in testosterone propionate stimulated castrated male Sprague-Dawley rat assessed as seminal vesicles weight loss at 20 mg/kg, po administered once daily for 10 days and measured 24 hrs post last dose; format: functional; settings: time 11 day
[12] = Effect on androgen sensitive organs in testosterone propionate stimulated castrated male Sprague-Dawley rat assessed as ventral prostate weight loss at 20 mg/kg, po administered once daily for 10 days and measured 24 hrs post last dose; format: functional; settings: time 11 day
[13] = Antitumor activity against human LNCaP/AR cells xenografted in SCID male mouse assessed as tumor growth inhibition at 10 mg/kg, po administered once daily for 28 days and measured every 3 days; format: functional; settings: Homo sapiens, LNCaP/AR, 672 h, time 28 day, read-out: TGI
[14] = Toxicity in SCID male mouse xenografted with human LNCaP/AR cells assessed as tolerability at 10 mg/kg, po administered once daily for 28 days and measured every 3 days; format: organism-based; settings: in vivo, 672 h, time 28 day
[15] = Toxicity in SCID male mouse xenografted with human LNCaP/AR cells assessed as animal weight loss at 10 mg/kg, po administered once daily for 28 days and measured every 3 days; format: organism-based; settings: in vivo, 672 h, time 28 day
[16] = tested on: Mus musculus; assay: In vivo induction of androgen receptor in human LNCaP/AR cells xenografted in SCID mouse assessed as reduction in PSA level at 10 mg/kg, po administered once daily for 28 days by ELISA; format: functional, organism-based; settings: time 28.0 day
[17] = target: Androgen receptor (Homo sapiens) (UniProt P10275); assay: In vivo induction of androgen receptor in human LNCaP/AR cells xenografted in SCID mouse assessed as reduction in AR protein level at 10 mg/kg, po administered once daily for 28 days by ELISA; settings: time 28.0 day
[18] = Half life in Sprague-Dawley rat at 5 mg/kg, iv measured upto 24 hrs by LC-MS/MS analysis; format: ADME, organism-based; settings: in vivo
[19] = Half life in dog at 2 mg/kg, iv measured upto 24 hrs by LC-MS/MS analysis; format: ADME, organism-based, Canis lupus familiaris; settings: in vivo
[20] = Cmax in Sprague-Dawley rat at 5 mg/kg, iv measured upto 24 hrs by LC-MS/MS analysis; format: ADME, organism-based; design: dose 5 mg/kg, time < 24 hrs, route iv; settings: in vivo
[21] = Cmax in dog at 2 mg/kg, iv measured upto 24 hrs by LC-MS/MS analysis; format: ADME, organism-based, Canis lupus familiaris; design: time < 24 hrs, dose 2 mg/kg, route iv; settings: in vivo
[22] = AUC(0 to t) in Sprague-Dawley rat at 5 mg/kg, iv measured upto 24 hrs by LC-MS/MS analysis; format: ADME, organism-based; settings: in vivo
[23] = AUC(0 to t) in dog at 2 mg/kg, iv measured upto 24 hrs by LC-MS/MS analysis; format: ADME, organism-based, Canis lupus familiaris; settings: in vivo
[24] = Clearance in Sprague-Dawley rat at 5 mg/kg, iv measured upto 24 hrs by LC-MS/MS analysis; format: ADME, organism-based; settings: in vivo
[25] = Clearance in dog at 2 mg/kg, iv measured upto 24 hrs by LC-MS/MS analysis; format: ADME, organism-based, Canis lupus familiaris; settings: in vivo
[26] = Volume of distribution at steady state in Sprague-Dawley rat at 5 mg/kg, iv measured upto 24 hrs by LC-MS/MS analysis; format: ADME, organism-based; settings: in vivo, read-out: Vdss
[27] = Volume of distribution at steady state in dog at 2 mg/kg, iv measured upto 24 hrs by LC-MS/MS analysis; format: ADME, organism-based, Canis lupus familiaris; settings: in vivo, read-out: Vdss
[28] = Oral bioavailability in Sprague-Dawley rat at 10 mg/kg measured upto 24 hrs by LC-MS/MS analysis; format: ADME, organism-based; settings: in vivo
[29] = Cmax in dog at 10 mg/kg, po measured upto 24 hrs by LC-MS/MS analysis; format: ADME, organism-based, Canis lupus familiaris; design: dose 10 mg/kg, time < 24 hrs, route po; settings: in vivo
[30] = Half life in dog at 10 mg/kg, po measured upto 24 hrs by LC-MS/MS analysis; format: ADME, organism-based, Canis lupus familiaris; settings: in vivo
[31] = Tmax in dog at 10 mg/kg, po measured upto 24 hrs by LC-MS/MS analysis; format: ADME, organism-based, Canis lupus familiaris; settings: in vivo
[32] = AUC(0 to t) in dog at 10 mg/kg, po measured upto 24 hrs by LC-MS/MS analysis; format: ADME, organism-based, Canis lupus familiaris; settings: in vivo
[33] = Oral bioavailability in dog at 10 mg/kg measured upto 24 hrs by LC-MS/MS analysis; format: ADME, organism-based, Canis lupus familiaris; settings: in vivo

Voltage-gated inwardly rectifying potassium channel KCNH2, sequence (Q12809 whole entry): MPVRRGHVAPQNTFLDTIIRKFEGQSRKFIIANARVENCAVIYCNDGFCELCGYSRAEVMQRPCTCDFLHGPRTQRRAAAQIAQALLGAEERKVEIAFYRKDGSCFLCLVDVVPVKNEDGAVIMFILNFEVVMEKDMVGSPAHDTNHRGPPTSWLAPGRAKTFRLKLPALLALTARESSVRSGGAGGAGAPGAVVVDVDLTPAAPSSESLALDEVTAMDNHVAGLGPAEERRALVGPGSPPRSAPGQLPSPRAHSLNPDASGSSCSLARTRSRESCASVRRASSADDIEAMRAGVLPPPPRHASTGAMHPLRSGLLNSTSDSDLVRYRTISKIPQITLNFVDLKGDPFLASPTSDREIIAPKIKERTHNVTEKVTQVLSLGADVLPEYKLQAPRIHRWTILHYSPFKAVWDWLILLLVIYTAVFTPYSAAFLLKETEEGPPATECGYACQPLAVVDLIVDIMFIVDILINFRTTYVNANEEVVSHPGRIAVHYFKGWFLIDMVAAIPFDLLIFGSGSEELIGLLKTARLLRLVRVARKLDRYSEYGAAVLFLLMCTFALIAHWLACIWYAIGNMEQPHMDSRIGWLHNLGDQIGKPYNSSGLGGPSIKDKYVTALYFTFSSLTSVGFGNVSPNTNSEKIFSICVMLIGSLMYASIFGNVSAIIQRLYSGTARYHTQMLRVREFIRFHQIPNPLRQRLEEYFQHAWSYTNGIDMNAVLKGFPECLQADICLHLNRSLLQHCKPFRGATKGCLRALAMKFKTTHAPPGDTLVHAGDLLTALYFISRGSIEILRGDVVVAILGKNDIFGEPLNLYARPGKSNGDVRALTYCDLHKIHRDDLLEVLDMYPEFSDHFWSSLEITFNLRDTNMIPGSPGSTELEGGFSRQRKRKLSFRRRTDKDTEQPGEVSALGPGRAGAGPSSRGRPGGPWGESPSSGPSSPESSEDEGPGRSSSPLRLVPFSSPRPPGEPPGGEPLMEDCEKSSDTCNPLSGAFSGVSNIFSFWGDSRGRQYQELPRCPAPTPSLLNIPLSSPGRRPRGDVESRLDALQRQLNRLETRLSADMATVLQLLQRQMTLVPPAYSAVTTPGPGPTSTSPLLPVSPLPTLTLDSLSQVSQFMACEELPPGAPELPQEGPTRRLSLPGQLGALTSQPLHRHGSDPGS
Androgen receptor (Homo sapiens), P10275 [F877L], sequence (P10275 whole entry F877L): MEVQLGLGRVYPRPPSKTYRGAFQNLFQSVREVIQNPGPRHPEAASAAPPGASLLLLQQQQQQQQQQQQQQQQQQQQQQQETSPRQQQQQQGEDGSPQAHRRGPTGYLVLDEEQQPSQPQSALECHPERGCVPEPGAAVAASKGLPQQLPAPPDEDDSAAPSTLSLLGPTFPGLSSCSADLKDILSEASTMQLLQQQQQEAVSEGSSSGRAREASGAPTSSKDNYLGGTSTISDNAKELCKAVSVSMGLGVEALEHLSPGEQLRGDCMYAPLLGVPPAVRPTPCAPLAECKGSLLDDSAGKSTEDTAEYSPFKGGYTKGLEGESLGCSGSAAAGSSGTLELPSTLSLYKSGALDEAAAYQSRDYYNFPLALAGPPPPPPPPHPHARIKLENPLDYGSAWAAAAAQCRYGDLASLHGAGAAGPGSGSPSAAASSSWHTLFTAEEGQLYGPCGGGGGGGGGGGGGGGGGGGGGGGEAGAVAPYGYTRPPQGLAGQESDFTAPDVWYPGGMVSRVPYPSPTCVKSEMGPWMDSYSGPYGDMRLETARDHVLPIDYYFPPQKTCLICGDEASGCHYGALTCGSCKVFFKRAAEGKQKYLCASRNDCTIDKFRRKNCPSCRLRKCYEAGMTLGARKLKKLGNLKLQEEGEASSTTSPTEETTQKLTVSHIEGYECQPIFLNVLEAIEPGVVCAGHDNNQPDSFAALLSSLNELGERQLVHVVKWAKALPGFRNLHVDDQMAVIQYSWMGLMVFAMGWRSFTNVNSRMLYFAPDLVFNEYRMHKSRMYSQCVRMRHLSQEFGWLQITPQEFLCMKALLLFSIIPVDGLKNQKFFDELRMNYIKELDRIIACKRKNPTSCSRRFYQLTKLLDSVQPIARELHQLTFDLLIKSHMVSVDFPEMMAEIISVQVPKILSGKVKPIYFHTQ

`Cc1cn(C2=CCC3C4CC=C5C[C@@H](NC(=O)c6ccc(F)cc6F)CC[C@]5(C)C4CC[C@]23C)cn1` (some centres not stated) gave an IC50 [1] of 327 nM, an IC50 [2] greater than 40000 nM and an EC50 [3] of 1680 nM. For the same molecule, the Ratio [4] was 8.6, the IC50 [5] was 127 nM and the Activity [6] was 41.6%. It also gave a half-life [7] of 6.02 h, a Tmax [8] of 6 h and a Cmax [9] of 1520 ng/mL. For the same molecule, the AUCt [10] was 22542 h/ng/mL, the Activity [11] was -65% and the Activity [12] was -65%. For the same molecule, the inhibition in vivo at 10 mg/kg [13] was 50%, the Activity [14] was “Non-Toxic” and the Activity [15] was “Non-Toxic”. For the same molecule, the Activity [16] was “Active” and the Activity [17] was “inactive”.
In the case of `Cc1cn(C2=CCC3C4CC=C5C[C@@H](NC(=O)c6ccc(F)cc6)CC[C@]5(C)C4CC[C@]23C)cn1.Cl` (some centres not stated), the half-life [7] is reported as 6.82 h, the half-life [18] is reported as 6.39 h and the half-life [19] is reported as 5.15 h. It also gave a Tmax [8] of 0.83 h, a Cmax [9] of 8800 ng/mL and a Cmax [20] of 14300 ng/mL. The Cmax [21] was 1860 ng/mL, the AUCt [10] was 84338 h/ng/mL and the AUCt [22] was 45408 h/ng/mL. For the same molecule, the AUCt [23] was 4737 h/ng/mL, the clearance [24] was 1.82 mL/min/kg and the clearance [25] was 6.86 mL/min/kg. The Vd [26] was 0.77 L/kg, the Vd [27] was 1.92 L/kg and the bioavailability [28] was 93%. It also gave a Cmax [29] of 907 ng/mL, a half-life [30] of 12.4 h and a Tmax [31] of 6 h. The AUCt [32] was 10460 h/ng/mL and the bioavailability [33] was 44%.
